Measured values published in article PMC4267740, “Unprecedented Therapeutic Potential with a Combination of A2A/NR2B Receptor Antagonists as Observed in the 6-OHDA Lesioned Rat Model of Parkinson's Disease” (PLoS ONE, 2014).
Where two headings read alike, the source gives them in different places.

Assays:
[1] = test system: NR2B; conditions: In vitro Binding; cited from earlier work
[2] = test system: NR2A; set-up: method as in PMID 19594762; conditions: In vitro Binding; cited from earlier work
[3] = Plasma and brain exposure in satellite lesioned rats; format: in vivo, rat; conditions: rat, mean ± SD; for concentration at 60 min: po, 30 mg/kg, 60 min after dosing; for concentration at 90 min: ip, 3 mg/kg, 90 min after dosing
Protocol: Satellite lesioned rats (400–450 g) were anesthetized with isoflurane and sacrificed by exsanguination. Blood samples were collected in EDTA centrifuged 10 min at 3000 rpm at 4°C to obtain plasma and stored at −20°C prior the analysis. Brains were perfused by saline collected and immediately stored at −20°C prior the analysis. Brain samples were added to 4 volumes of water before being homogenized. A structural analog compound was added as internal standard to the samples and proteins were crashed using 8 volumes of acetonitrile. Compounds were analyzed on an API5000 mass spectrometer (ABSciex, Framingham, MA, USA.) equipped with a turbo ion spray source and interfaced with an Agilent 1290 Infinity LC system (Agilent Technologies, Waldbroon, Germany). The mass spectrometer was operated in the positive ionization mode with Multiple Reactions Monitoring used to quantify the various analytes (407 to 292 for Tozadenant; 398 to 109 for Radiprodil, 346 to 105 for Sch-58261 and 342 to 100 for Co-101244). A Waters HSS T3 column (2.1×30 mm, 1.8 µm) was used. The mobile phase consisted of 100% water with 0.1% formic acid (phase A) and 100% acetonitrile with 0.1% formic acid (phase B). The flow rate was 1 mL/min. A linear gradient was performed from 0 to 1 min (95 to 30% phase A), a jump to 90% B in 0.01 min, a hold period of 1.29 min at 90% phase B followed by equilibration at the initial condition was applied before the following injection.
Before undertaking the study, each A2A and NR2B antagonist was tested individually. The doses were selected on the basis of preliminary dose-response curves performed separately for each drug and submaximal dose (i.e. response observed is not at its maximal level) of each drug was selected for the combination studies. The two drugs were administered separately via an intraperitoneal (ip) injection with a 2-minute interval between the two drugs. Five minutes after the second injection, animals were placed in the testing cage for behavioural recording. Due to formulation and exposure issues, Tozadenant and Radiprodil had to be administered orally and therefore recording was started 60 minutes post dosing at this corresponds to maximum plasma concentrations. Eight drug-naïve animals were used for each of the four procedures; 32 in total for each combination. All behavioral experiments were conducted between 8.00 AM and 2.00 PM at the latest. Preliminary pharmacokinetic assays investigated the plasma and brain disposition of selected drugs administered alone or in combination (ie. Tozadenant/Radiprodil, and Sch-58261/Co-101244; 3 animals per group). Tozadenant and Radiprodil were measured in samples obtained 60 minutes after single oral administration at 30 mg/kg. Sch-58261 and Co-101244 were measured in samples collected 90 min after single intraperitoneal administration at 3 mg/kg.

[4] = molecular target: A1; set-up: method as in PMID 21810444, PMID 9933143, PMID 17236762; conditions: in vitro binding; rat or human; cited from earlier work
[5] = molecular target: A2A; set-up: method as in PMID 21810444, PMID 9933143, PMID 17236762; conditions: in vitro binding; rat or human; cited from earlier work
[6] = brain, administered alone, oral 30 mg/kg, expressed per g tissue, 3 animals, read-out: Brain concentration
[7] = brain, administered in combination Tozadenant + Radiprodil, both oral 30 mg/kg, expressed per g tissue, 3 animals, read-out: Brain concentration
[8] = plasma, administered alone, oral 30 mg/kg, 3 animals, read-out: Plasma concentration
[9] = plasma, administered in combination Tozadenant + Radiprodil, both oral 30 mg/kg, 3 animals, read-out: Plasma concentration

| concentration at 60 min [3, 6] | concentration at 60 min [3, 7] | concentration at 60 min [3, 8] | concentration at 60 min [3, 9] | concentration at 90 min ([3]; brain, administered alone, ip 3 mg/kg, expressed per g tissue, 3 animals (Co-101244 n = 2), read-out: Brain concentration) | concentration at 90 min ([3]; brain, administered in combination Sch-58261+Co-101244, both ip 3 mg/kg, expressed per g tissue, 3 animals, read-out: Brain concentration) | concentration at 90 min ([3]; plasma, administered alone, ip 3 mg/kg, 3 animals (Co-101244 n = 2), read-out: Plasma concentration) | concentration at 90 min ([3]; plasma, administered in combination Sch-58261+Co-101244, both ip 3 mg/kg, 3 animals, read-out: Plasma concentration) | Compound | IC50 [1] | IC50 [2] | Ki [4] | Ki [5] |
| --- | --- | --- | --- | --- | --- | --- | --- | --- | --- | --- | --- | --- |
| 2630 ± 560 ng/mL | 2590 ± 2480 ng/mL | 4960 ± 850 ng/mL | 5590 ± 2930 ng/mL | – | – | – | – | O=C(Nc1ccc2[nH]c(=O)oc2c1)C(=O)N1CCC(Cc2ccc(F)cc2)CC1 [Radiprodil] | 3 to 10 nM | > 10000 nM | – | – |
| – | – | – | – | 246 ± 34.7 ng/mL | 264 ± 38.3 ng/mL | 97.2 ± 10.1 ng/mL | 112 ± 4.16 ng/mL | Nc1nc2c(cnn2CCc2ccccc2)c2nc(-c3ccco3)nn12 [Sch-58261] | – | – | – | – |
| 180 ± 40 ng/mL | 110 ± 40 ng/mL | 6050 ± 950 ng/mL | 5040 ± 140 ng/mL | – | – | – | – | COc1ccc(N2CCOCC2)c2sc(NC(=O)N3CCC(C)(O)CC3)nc12 [Tozadenant] | – | – | 1320 nM | 4.9 nM |
